# Read-outs that look alike come from different tables or passages of the source.
# Tests used:
# [1] = test system: human myeloid leukemic cell lines; settings: cited from earlier work
# mitogen-stimulated HPBL = test: PCC induction (PCC index) by OA in mitogen-stimulated HPBL; assay type: cell-based, human
# Description: (§1) PCC spreads may be prepared according to standard cytogenetic procedures directly after the indicated treatment. Briefly, cells may be treated with a hypotonic potassium chloride (0.075 M) solution for 5 minutes and fixed in acetic: methanol (1:3) fixative. Fixed cells may be dropped onto acid cleaned glass slides.
# (§2) To directly visualize the spread chromosomes, the slides may be stained. Suitable stains are known to those of skill in the art, for example, a 4% aqueous solution of Giemsa stain may be used for observation under a light microscope. Coded slides can be analyzed under 1000×magnification. Cells with condensed chromatin material displaying at least partial separation of chromosomes are scored as PCC spreads.
# (§3) The PCC index may be determined as follows. [formula]
# HPBLs prepared as described above may be incubated in cell culture medium supplemented with an energy source. In order to determine the optimal OA concentration and duration of incubation for PCC, phytohemagglutinin (PHA, 10 μg/ml; Murex Diagnostics) was subsequently added to the medium to stimulate proliferation.
# (§4) The HPBL were treated with OA at concentrations ranging from 0.25 to 1 μM in a cell culture medium containing 100 μM ATP and incubated at 37° C. for varying durations of up to 24 hours. Slides were prepared and PCC index was determined as explained above.
# unstimulated HPBL = test: PCC induction (PCC index) in unstimulated HPBL; assay type: cell-based, human; settings: cell culture medium containing OA alone, no mitogen
# Description: as §1, §2, §3, §4
# In the following working example of the present invention, PCC induction in unstimulated HPBL was accomplished by the addition of p34^cdc2/cyclin B kinase to the complete media supplemented with ATP (100 μM) containing OA (0.75 μM) and incubation for three hours at 37° C. […]
structure (smiles),measurement,setting,value
"C=C1[C@@H](O)[C@@H]2O[C@]3(CC[C@H](/C=C/[C@@H](C)[C@@H]4CC(C)=C[C@@]5(O[C@H](C[C@@](C)(O)C(=O)O)CC[C@H]5O)O4)O3)CC[C@H]2O[C@@H]1[C@@H](O)C[C@H](C)[C@H]1O[C@@]2(CCCCO2)CC[C@H]1C [OA, okadaic acid]",phase of cell-cycle arrest,[1]; higher PCC inducible concentrations (above 0.5 μM),G1-S-phase
same,phase of cell-cycle arrest,[1]; lower concentrations,G2-M phase
same,PCC levels determined by PCC index compared with controls,"mitogen-stimulated HPBL; OA 0.25 μM, within 1 hour, p<0.01, Student's t-test",significant
same,cytostatic effect,mitogen-stimulated HPBL; OA 0.75 μM,not cytostatic
same,"PCC index, maximum","mitogen-stimulated HPBL; OA 1 μM, 8 hours, PHA 10 μg/ml, 100 μM ATP, 37° C.",61%
same,quality of PCC spreads,"mitogen-stimulated HPBL; prolonged treatment with higher concentrations of OA, possibly due to toxicity",poor spread quality
same,PCC induction,unstimulated HPBL,did not result in PCC induction

# Reference: patent US20040132037A1, “Materials and methods for the induction of premature chromosone condensation” (priority 2004, published 2004)
